# Active and inactive are the calls of the source. For most assays here, no stated cut-off is given here; in the data, actives have a measured EC50 and inactives only a lower limit.
# Experiments:
# [1] = cytotoxicity toward NIH3T3 fibroblasts, dose response, counter-screen, cell-based, ATP luminescence, mouse fibroblasts (AID 2010); assay type: functional;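 further: cells exposed to compound for about 90 hours before reading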
# [2] = inhibitors of intracellular T. cruzi replication, confirmation, NIH3T3 host cells, beta-gal luminescence (AID 2044); assay type: functional, cell-based;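 further: intracellular parasites grown in NIH/3T3 mouse fibroblasts as host cells; luminescent beta-galactosidase reporter signal from transgenic T. cruzi replicating inside host cells; inhibitors lower the luminescence signal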
# Cytochrome P450 2D6 = Cytochrome P450 2D6 (Homo sapiens, UniProt P10635);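 further: CYP2D6 member of a cytochrome P450 panel assay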
# [3] = biological target: T1, Corticotropin-releasing factor receptor 2/Corticotropin-releasing factor-binding protein (Homo sapiens, UniProt P24387+Q13324); assay: Dose Response confirmation of uHTS hits for small molecule antagonists of the CRF-binding protein and CRF-R2 receptor complex.; assay type: functional; conditions: read-out: IC50_Mean
# T1 sequence (Q13324 whole entry): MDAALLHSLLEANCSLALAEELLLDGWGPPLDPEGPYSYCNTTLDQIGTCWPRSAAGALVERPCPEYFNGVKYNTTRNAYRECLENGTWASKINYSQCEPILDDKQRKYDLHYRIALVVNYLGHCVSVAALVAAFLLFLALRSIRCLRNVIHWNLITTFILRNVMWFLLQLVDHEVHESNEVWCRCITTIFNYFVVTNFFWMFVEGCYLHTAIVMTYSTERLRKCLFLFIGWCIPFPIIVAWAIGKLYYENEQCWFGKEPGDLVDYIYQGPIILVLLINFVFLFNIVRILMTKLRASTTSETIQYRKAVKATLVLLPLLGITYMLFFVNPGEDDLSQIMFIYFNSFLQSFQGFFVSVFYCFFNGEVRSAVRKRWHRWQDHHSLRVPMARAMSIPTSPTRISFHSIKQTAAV
# T1 sequence (P24387 whole entry): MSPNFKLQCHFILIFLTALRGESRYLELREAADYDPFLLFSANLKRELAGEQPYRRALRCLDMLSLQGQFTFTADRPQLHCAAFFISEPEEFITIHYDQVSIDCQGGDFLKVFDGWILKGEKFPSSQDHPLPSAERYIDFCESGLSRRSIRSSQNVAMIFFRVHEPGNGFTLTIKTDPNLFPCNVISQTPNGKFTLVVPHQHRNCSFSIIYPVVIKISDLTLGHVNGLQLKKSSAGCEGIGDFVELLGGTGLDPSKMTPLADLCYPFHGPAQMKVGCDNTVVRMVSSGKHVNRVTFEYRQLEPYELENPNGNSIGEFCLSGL
# [4] = biological target: T1, Corticotropin-releasing factor receptor 2/Corticotropin-releasing factor-binding protein; assay: activators of CRF receptor 2 with binding protein – uHTS hits, confirmation (AID 602473); assay type: functional; conditions: read-out: EC50_Mean
# Streptococcus = assay: Group A Streptococcus viability loss, dose response, counter-screen for streptokinase expression inhibitor project, luminescence, BacTiterGlo (AID 1915); assay type: functional, organism-based;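 further: potency for reduction of bacterial viability or growth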
# Streptokinase A = biological target: T2, Streptokinase A (Streptococcus pyogenes serotype M1, UniProt P10520); assay: S. pyogenes streptokinase expression inhibitors, potency, dose response, plasminogen activation absorbance, OD405 (AID 1914); assay type: functional, Streptococcus pyogenes M1 GAS;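 further: secreted streptokinase activity via plasminogen activation per viability signal from cell pellet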
# T2 sequence (P10520 whole entry): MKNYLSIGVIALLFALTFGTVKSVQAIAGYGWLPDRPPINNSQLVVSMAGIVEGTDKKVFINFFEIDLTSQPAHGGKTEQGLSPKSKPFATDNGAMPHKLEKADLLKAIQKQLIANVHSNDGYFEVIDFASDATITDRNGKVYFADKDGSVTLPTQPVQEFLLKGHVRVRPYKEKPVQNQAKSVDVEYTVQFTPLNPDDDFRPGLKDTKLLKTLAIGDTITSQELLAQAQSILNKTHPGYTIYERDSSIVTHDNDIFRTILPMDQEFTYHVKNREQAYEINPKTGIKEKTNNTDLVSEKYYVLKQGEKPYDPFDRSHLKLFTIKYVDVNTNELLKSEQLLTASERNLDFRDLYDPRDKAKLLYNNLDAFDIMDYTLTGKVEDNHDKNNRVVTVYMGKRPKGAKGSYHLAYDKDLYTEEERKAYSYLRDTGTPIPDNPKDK
# [5] = system: Streptococcus sp. 'group A'; assay: growth inhibition of control SK(-) GAS strain, dose response, counter-screen for streptokinase expression inhibitor project, luminescence, kanamycin, BacTiterGlo, confirmation (AID 1900); assay type: functional, organism-based
# Chain of Cytochrome P450 2D6 (P10635 whole entry): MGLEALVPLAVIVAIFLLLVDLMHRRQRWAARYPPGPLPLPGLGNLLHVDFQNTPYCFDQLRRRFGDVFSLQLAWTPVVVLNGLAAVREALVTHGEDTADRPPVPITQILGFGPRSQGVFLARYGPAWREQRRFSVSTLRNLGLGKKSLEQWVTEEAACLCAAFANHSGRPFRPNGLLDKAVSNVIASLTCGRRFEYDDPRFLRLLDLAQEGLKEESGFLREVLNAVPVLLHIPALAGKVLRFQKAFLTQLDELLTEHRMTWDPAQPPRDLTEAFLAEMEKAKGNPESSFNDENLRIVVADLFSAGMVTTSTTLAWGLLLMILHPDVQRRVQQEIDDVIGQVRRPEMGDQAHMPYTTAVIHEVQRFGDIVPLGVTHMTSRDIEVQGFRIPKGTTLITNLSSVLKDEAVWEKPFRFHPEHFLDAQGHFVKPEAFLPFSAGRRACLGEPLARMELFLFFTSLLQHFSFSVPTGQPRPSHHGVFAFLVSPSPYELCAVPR
compound,measurement,setting,value
Cc1ccc(NC(=O)c2c(C(F)(F)F)nn(C)c2SCc2ccc(Cl)cc2)cc1C,EC50,[1],> 60 µM (not active)
same,EC50,[2],2.84 µM (active)
Cc1cc(NC(=O)CCCn2cnc([N+](=O)[O-])n2)no1,EC50,[1],> 60 µM (inconclusive)
same,EC50,[2],0.797 µM (active)
c1ccc(C(c2nnnn2C2CCCC2)N2CCN(c3nc4ccccc4s3)CC2)cc1 (configuration not stated),EC50,[1],> 60 µM (not active)
same,EC50,[2],1.95 µM (active)
CN(CC[C@@H](Oc1ccc(-c2ccccc2)cc1)c1ccc(F)cc1)CC(=O)O,AC50,Cytochrome P450 2D6,31.6 µM (inconclusive)
CC(C)Cn1cnc2c(SCc3ccccc3)nc(N)nc21,IC50,[3],> 47.1 µM (inactive)
same,EC50,[4],> 53 µM (inactive)
Cc1cc(NS(=O)(=O)c2c(C(=O)N3CCOCC3)c(C)n(C)c2C)ccc1Br,IC50,[3],> 47.1 µM (inactive)
same,EC50,[4],> 53 µM (inactive)
CCOC(=O)c1ccc(NC(S)=NN2CCN(C)CC2)cc1,EC50,[1],> 60 µM (inconclusive)
same,EC50,[2],1.08 µM (active)
O=C(Nc1cccnc1)c1ccc(-c2ccc(Cl)cc2)o1,IC50,[3],> 47.1 µM (inactive)
same,EC50,[4],> 53 µM (inactive)
O=C(NCC1COc2ccccc2O1)c1ccc(NC(=O)C(c2ccccc2)c2ccccc2)cc1 (configuration not stated),EC50,[1],> 60 µM (inconclusive)
same,EC50,[2],1.88 µM (active)
CS(=O)(=O)N1CCC2(CC1)CN(Cc1ccccc1)C2,AC50,Cytochrome P450 2D6,15.8 µM (inconclusive)
COc1ccc(O)c(C(=O)c2cc(C#N)c(=O)n(-c3c(C)n(C)n(-c4ccccc4)c3=O)c2)c1,EC50,[4],6.39 µM (active)
COc1ccc(-c2cc(C)no2)cc1S(=O)(=O)N1CCN(C(=O)c2ccco2)CC1,IC50,[3],> 47.1 µM (inactive)
same,EC50,[4],> 53 µM (inactive)
CSc1ccccc1C(=O)C1CCCN(Cc2cnn(-c3ccccc3)c2)C1 (configuration not stated),EC50,[1],> 60 µM (not active)
same,EC50,[2],0.245 µM (active)
COc1ccc(/C=c2\s/c(=C/C(=O)c3ccc(C)cc3)[nH]c2=O)cc1OC,EC50,Streptococcus,> 150 µM (not active)
same,EC50,Streptokinase A,> 150 µM (not active)
same,EC50,[5],13.2 µM (active)
same,EC50,[4],13.4 µM (active)
Cc1noc(/C=C/c2ccc(-c3ccccc3Cl)o2)c1[N+](=O)[O-],EC50,[4],5.11 µM (active)
C[C@H](C(=O)O)c1cccc(Oc2ccccc2)c1,AC50,Cytochrome P450 2D6,12.6 µM (inconclusive)
Cc1ccc(N2C(=O)NC(=O)/C(=C\c3ccoc3)C2=O)cc1,EC50,[4],> 53 µM (inactive)
O=C(CSc1nnc(NC(=O)c2ccccc2)s1)NCC1CCCO1 (configuration not stated),EC50,Streptococcus,> 150 µM (not active)
same,EC50,Streptokinase A,> 150 µM (not active)
same,EC50,[5],> 150 µM (not active)
COc1ccccc1OCC(=O)NCC1CCCN(C(=O)c2ccccc2C(C)=O)C1 (configuration not stated),IC50,[3],> 47.1 µM (inactive)
same,EC50,[4],> 53 µM (inactive)
COc1ccc(NC(=O)N2CCCC3(CCN(S(=O)(=O)c4ccccc4)CC3)C2)cc1,AC50,Cytochrome P450 2D6,15.8 µM (inconclusive)
COc1ccc(C2CC3=Nc4ncnn4C(c4ccccc4C)C3=C(O)C2)c(OC)c1 (configuration not stated),EC50,[1],> 60 µM (not active)
same,EC50,[2],1.56 µM (active)
CCOc1ccc(N=C(N)Nc2nc(C)cc(C)n2)cc1,EC50,[4],6.95 µM (active)
CCOC(=O)Cn1c(CN(Cc2ccccc2)Cc2ccccc2)nc2c1c(=O)[nH]c(=O)n2C,AC50,Cytochrome P450 2D6,31.6 µM (inconclusive)
Cc1ccccc1NC(=O)C(C)c1cccc(C(=O)c2ccccc2)c1 (configuration not stated),AC50,Cytochrome P450 2D6,25.1 µM (inconclusive)
CCN(CC)CCn1c(SCC(=O)NCCC2=CCCCC2)nc2c(sc3ccccc32)c1=O,EC50,[1],15.7 µM (active)
same,EC50,[2],2 µM (active)
COc1cccc(-c2nc(NCc3ccccc3)c3ccccc3n2)c1,AC50,Cytochrome P450 2D6,20 µM (inconclusive)
Cc1cccc(Nc2nc(N)nc(CN3CCN(c4ccc(F)cc4)CC3)n2)c1,EC50,Streptococcus,95.3 µM (active)
same,EC50,Streptokinase A,> 150 µM (not active)
same,EC50,[5],12.1 µM (active)
